Experimental findings from patent publication US20240150293A1, “SPIROCYCLOHEXANE DERIVATIVES, PHARMACEUTICAL COMPOSITIONS CONTAINING THEM AND THEIR USES AS ANTI-APOPTOTIC INHIBITORS” (LES LABORATOIRES SERVIER, priority 2021, published 2024) are described below.

Where two headings read alike, the source gives them in different places.

Assay [1] relates to H929 multiple myeloma tumor line. Description: In vitro cytotoxicity, MTT assay (Example B, Method A). The class given is cell-based. To be noted: H929 cells, 48 hours exposure, read-out: C50. How it is done:
The cytotoxicity studies were carried out on the H929 multiple myeloma tumor line.
The cells are distributed onto microplates and exposed to the test compounds for 48 hours. The cell viability is then quantified by a colorimetric assay, the Microculture Tetrazolium Assay (Carmichael et al, Cancer Res. 1987, 47, 939-942).
The results are expressed in C50 which means concentration corresponding to […] of effect/inhibition.
On the technique in general: Tetrazolium assays rely on reduction of a dye to a coloured formazan, in cell work by metabolically active cells.

Assay [2] has as its target Cy5-labelled Mcl1 (amino acids 171-321) C286S protein (UniProtKB Q07820) (Homo sapiens (Human), UniProt Q07820, C286S). Description: Inhibition of Mcl-1 by the fluorescence quenching assay (Example A, Method B). In kind it is binding. In outline: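 Cy5-labelled Mcl1 171-321 C286S (1 nM) quenched by TQ5WS-labelled PUMA peptide (10, 20 or 400 nM); displacement raises fluorescence (Ex 620/Em 680 nm). Buffer 10 mM HEPES, 150 mM NaCl, 0.05% Tween 20, pH 7.4, 5% DMSO; 2 h at room temperature, 11-point curves, IC50 converted to Ki (cKi/eKi).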

Cy5-labelled Mcl1 (amino acids 171-321) C286S protein, sequence (Q07820 171-321 C286S): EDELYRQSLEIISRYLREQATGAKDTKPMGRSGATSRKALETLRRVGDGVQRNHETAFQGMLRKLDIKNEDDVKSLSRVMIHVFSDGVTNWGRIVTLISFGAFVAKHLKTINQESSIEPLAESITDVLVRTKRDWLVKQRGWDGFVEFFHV

A word on the Ki: it is a dissociation constant, usually derived from enzyme kinetics or from competition with a known ligand. On to `CC(O)c1ccc2c(c1)[C@]1(CC[C@@](Nc3cccc(Cl)c3)(C(=O)O)CC1)[C@@H](C[C@@H](C)COc1ccnc3ccsc13)C2` (stereo partly drawn) [Example 722, (1r,2′S,4S)-4-(3-chloroanilino)-6′-(1-hydroxyethyl)-2′-{(2R)-2-methyl-3-[(thieno[3,2-b]pyridin-7-yl)oxy]propyl}-2′,3′-dihydrospiro[cyclohexane-1,1′-indene]-4-carboxylic acid], for which, in assay [1] (Homo sapiens, NCI-H929, 48 h), the IC50 turned out to be 244 nM. In assay [2], the Ki stood at 0.349 nM.
As to `C[C@@H](COc1ncnc2c1CCCC2)CC1=Cc2ccccc2[C@]12CC[C@@](Nc1cccc(Cl)c1)(C(=O)O)CC2` [Example 636, (1r,4R)-4-(3-chloroanilino)-2′-{(2R)-2-methyl-3-[(5,6,7,8-tetrahydroquinazolin-4-yl)oxy]propyl}spiro[cyclohexane-1,1′-indene]-4-carboxylic acid], the IC50 in assay [1] (Homo sapiens, NCI-H929, 48 h) was 3080 nM. In assay [2], the Ki was 16.2 nM.
Consider `CC1CCc2nccc(OC[C@H](C)CC3=Cc4ccccc4[C@]34CC[C@@](Nc3cccc(Cl)c3)(C(=O)O)CC4)c21` (single isomer, unassigned) [Example 630], for which the IC50 in assay [1] stood at 340 nM. The Ki in assay [2] is 1.17 nM.
As to `CC(CC1Cc2ccccc2[C@]12CC[C@@](Nc1cccc(Cl)c1)(C(=O)O)CC2)C1CCC(=O)CC1` (single isomer, unassigned) [Example 571, (1r,4r)-4-(3-chloroanilino)-2′-[2-(4-oxocyclohexyl)propyl]-2′,3′-dihydrospiro[cyclohexane-1,1′-indene]-4-carboxylic acid], the IC50 in assay [1] amounted to 30000 nM. Moreover, in assay [2], the Ki is 107 nM.
For the compound `C[C@@H](COc1ccnc2c1[C@H](C)CCC2)C[C@H]1Cc2ccccc2[C@]12CC[C@@](Nc1ccnc(Cl)c1)(C(=O)O)CC2` [Example 714, (1r,2′S,4S)-4-[(2-chloropyridin-4-yl)amino]-2′-[(2R)-2-methyl-3-{[(5R)-5-methyl-5,6,7,8-tetrahydroquinolin-4-yl]oxy}propyl]-2′,3′-dihydrospiro[cyclohexane-1,1′-indene]-4-carboxylic acid], the IC50 in assay [1] (Homo sapiens, NCI-H929, 48 h) came to 1260 nM. In assay [2], the Ki was determined as 4.75 nM.
Turning to `COc1ccc2c(c1)[C@]1(CC[C@@](Nc3cccc(Cl)c3)(C(=O)O)CC1)[C@@H](C[C@@H](C)COc1ccnc3c1[C@@H](C)CCC3)C2` [Example 783, (1r,2′S,4S)-4-(3-chloroanilino)-6′-methoxy-2′-[(2R)-2-methyl-3-{[(5S)-5-methyl-5,6,7,8-tetrahydroquinolin-4-yl]oxy}propyl]-2′,3′-dihydrospiro[cyclohexane-1,1′-indene]-4-carboxylic acid], the IC50 in assay [1] (Homo sapiens, NCI-H929, 48 h) was found to be 430 nM. In addition, the Ki in assay [2] was 10.3 nM.
For `CC1CCc2c(OC[C@H](C)C[C@H]3Cc4ccccc4[C@]34CC[C@@](Nc3cccc(Cl)c3)(C(=O)O)CC4)ccnc2C1` (stereo partly drawn) [Example 650, (1r,2′S,4S)-4-(3-chloroanilino)-2′-{(2R)-2-methyl-3-[(7-methyl-5,6,7,8-tetrahydroquinolin-4-yl)oxy]propyl}-2′,3′-dihydrospiro[cyclohexane-1,1′-indene]-4-carboxylic acid], in that order: 912 nM and 5.54 nM.
In the same order, the values of `C[C@@H](COc1ccnc2c1[C@H](C)CCC2)C[C@H]1Cc2ccccc2[C@]12CC[C@](C(=O)O)(N1CCc3c(Cl)cccc31)CC2` [Example 713, (1r,2′S,4S)-4-(4-chloro-2,3-dihydro-1H-indol-1-yl)-2′-[(2R)-2-methyl-3-{[(5R)-5-methyl-5,6,7,8-tetrahydroquinolin-4-yl]oxy}propyl]-2′,3′-dihydrospiro[cyclohexane-1,1′-indene]-4-carboxylic acid] are 152 nM and 3.23 nM.
For `CCCC#C[C@H](COc1ccnc2ccsc12)CC1=Cc2ccccc2[C@]12CC[C@@](Nc1cccc(Cl)c1)(C(=O)O)CC2` [Example 564, (1r,4R)-4-(3-chloroanilino)-2′-[(2R)-2-{[(thieno[3,2-b]pyridin-7-yl)oxy]methyl}hept-3-yn-1-yl]spiro[cyclohexane-1,1′-indene]-4-carboxylic acid], in that order: 16100 nM and 29.9 nM.
For the compound `C[C@@H](COc1ccnc2c1[C@H](C)CC=C2)C[C@H]1Cc2ccccc2[C@]12CC[C@@](Nc1cccc(Cl)c1)(C(=O)O)CC2` [Example 677, (1r,2′S,4S)-4-(3-chloroanilino)-2′-[(2R)-2-methyl-3-{[(5R)-5-methyl-5,6-dihydroquinolin-4-yl]oxy}propyl]-2′,3′-dihydrospiro[cyclohexane-1,1′-indene]-4-carboxylic acid], the IC50 in assay [1] (Homo sapiens, NCI-H929, 48 h) was 245 nM. In assay [2], the Ki is 1.18 nM.
Consider `O=C(O)[C@]1(Nc2cccc(Cl)c2)CC[C@]2(CC1)C(CC(F)COc1ccnc3c1CCCC3)=Cc1ccccc12` (single isomer, unassigned) [Example 506, (1r,4r)-4-(3-chloroanilino)-2′-{2-fluoro-3-[(5,6,7,8-tetrahydroquinolin-4-yl)oxy]propyl}spiro[cyclohexane-1,1′-indene]-4-carboxylic acid], for which the IC50 in assay [1] worked out at 2790 nM. Moreover, the Ki in assay [2] came to 49.2 nM.
For `Cc1cc(OC[C@H](C)C[C@H]2Cc3ccccc3[C@]23CC[C@@](Nc2cccc(Cl)c2)(C(=O)O)CC3)c2c(n1)CCCC2C` (single isomer, unassigned) [Example 662], in that order: 9060 nM and 68.7 nM.
`C[C@@H](COc1ccnc2c1[C@@H](C)CC[C@H]2C)C[C@H]1Cc2ccccc2[C@]12CC[C@@](Nc1cccc(Cl)c1)(C(=O)O)CC2` (single isomer, unassigned) [Example 658, (1r,2′S,4S)-4-(3-chloroanilino)-2′-[(2R)-3-{[(5R*,8S*)-5,8-dimethyl-5,6,7,8-tetrahydroquinolin-4-yl]oxy}-2-methylpropyl]-2′,3′-dihydrospiro[cyclohexane-1,1′-indene]-4-carboxylic acid]: in assay [1] (Homo sapiens, NCI-H929, 48 h), the IC50 came out at 879 nM. Besides, the Ki in assay [2] stood at 34.2 nM.
For `Cc1cc(Cl)cc(N[C@]2(C(=O)O)CC[C@]3(CC2)c2ccccc2C[C@@H]3C[C@@H](C)COc2ccnc3c2[C@H](C)CCC3)c1` [Example 710, (1r,2′S,4S)-4-(3-chloro-5-methylanilino)-2′-[(2R)-2-methyl-3-{[(5R)-5-methyl-5,6,7,8-tetrahydroquinolin-4-yl]oxy}propyl]-2′,3′-dihydrospiro[cyclohexane-1,1′-indene]-4-carboxylic acid], in that order: 3280 nM and 44.1 nM.
For `C[C@@H](COc1ccnc2c1[C@H](C)CC[C@H]2F)CC1=Cc2cc(F)ccc2[C@]12CC[C@@](Nc1cccc(Cl)c1)(C(=O)O)CC2` [Example 772, (1r,4R)-4-(3-chloroanilino)-5′-fluoro-2′-[(2R)-3-{[(5R,8R)-8-fluoro-5-methyl-5,6,7,8-tetrahydroquinolin-4-yl]oxy}-2-methylpropyl]spiro[cyclohexane-1,1′-indene]-4-carboxylic acid], in that order: 126 nM and 3.63 nM.
As for `CC(O)c1ccc2c(c1)[C@]1(CC[C@@](Nc3cccc(Cl)c3)(C(=O)O)CC1)[C@@H](C[C@@H](C)COc1ccnc3c1[C@H](C)CC[C@H]3F)C2` (single isomer, unassigned) [Example 864], in assay [1], the IC50 came to 183 nM. Moreover, in assay [2], the Ki was determined as 0.374 nM.
For `COCC(COc1ccnc2c1CCC2)CC1Cc2ccccc2[C@]12CC[C@@](Nc1cccc(Cl)c1)(C(=O)O)CC2` (stereo partly shown) [Example 494, (1r,4r)-4-(3-chloroanilino)-2′-(2-{[(6,7-dihydro-5H-cyclopenta[b]pyridin-4-yl)oxy]methyl}-3-methoxypropyl)-2′,3′-dihydrospiro[cyclohexane-1,1′-indene]-4-carboxylic acid], the IC50 in assay [1] (Homo sapiens, NCI-H929, 48 h) turned out to be 808 nM. The Ki in assay [2] is 3.62 nM.
For `C[C@@H](COc1ccnc2ccsc12)C[C@H]1Cc2ccccc2[C@]12CC[C@@](Nc1cccc(Cl)c1)(C(=O)O)CC2` [Example 591, (1r,2′S,4S)-4-(3-chloroanilino)-2′-{(2R)-2-methyl-3-[(thieno[3,2-b]pyridin-7-yl)oxy]propyl}-2′,3′-dihydrospiro[cyclohexane-1,1′-indene]-4-carboxylic acid], in that order: 438 nM and 2.72 nM.
With `C[C@@H](COc1ccnc2c1CCC2)C[C@H]1Cc2ccccc2[C@]12CC[C@@](Nc1cccc(Cl)c1)(C(=O)O)CC2` [Example 599, (1r,2′S,4S)-4-(3-chloroanilino)-2′-{(2R)-3-[(6,7-dihydro-5H-cyclopenta[b]pyridin-4-yl)oxy]-2-methylpropyl}-2′,3′-dihydrospiro[cyclohexane-1,1′-indene]-4-carboxylic acid], the IC50 in assay [1] (Homo sapiens, NCI-H929, 48 h) worked out at 237 nM. In addition, the Ki in assay [2] was determined as 1.05 nM.
In the case of `C[C@@H](COc1ccnc2c1[C@H](C)CC[C@H]2O)C[C@H]1Cc2ccccc2[C@]12CC[C@@](Nc1cccc(Cl)c1)(C(=O)O)CC2` [Example 673, (1r,2′S,4S)-4-(3-chloroanilino)-2′-[(2R)-3-{[(5R,8S)-8-hydroxy-5-methyl-5,6,7,8-tetrahydroquinolin-4-yl]oxy}-2-methylpropyl]-2′,3′-dihydrospiro[cyclohexane-1,1′-indene]-4-carboxylic acid], the IC50 in assay [1] is 208 nM. The Ki in assay [2] worked out at 0.647 nM.
